# Experimental data from patent US5852213A, “Mercaptoketones and mercaptoalcohols and a process for their preparation” (American Cyanamid Company, priority 1997, dated 1998).
# Key:
# [1] = test system: human recombinant stromelysin; assay: Stromelysin Inhibition in vitro; assay type: biochemical
# Procedure: Stromelysin Inhibition in vitro.
# The increase in OD405 is plotted and the slope of the line is calculated which represents the reaction rate.
# (§1) The linearity of the reaction rate is confirmed (r^2 >0.85). The mean of the control rate is calculated and compared for statistical significance (p<0.05) with drug-treated rates using Dunnett's multiple comparison test.
# Collangenase I = assay: In vivo MMP Inhibition (enzyme in implanted dialysis tubing); set-up: species or system rat (Sprague-Dawley) or mouse (CD-1)
# Procedure: A 2 cm piece of dialysis tubing (molecular weight cut-off 12-14,000, 10 mm flat width) containing matrix metalloproteinase enzyme (stromelysin, collagenase or gelatinase in 0.5 mL of buffer) is implanted either ip or sc (in the back) of a rat (Sprague-Dawley, 150-200 g) or mouse (CD-1, 25-50 g) under anesthesia. Drugs are administered PO, IP, SC or IV through a canula in the jugular vein. Drugs are administered in a dose volume of 0.1 to 0.25 mL/animal. Contents of the dialysis tubing is collected and enzyme activity assayed.
# Enzyme reaction rates for each dialysis tube are calculated. Tubes from at least 3 different animals are used to calculate the mean±sem. Statistical significance (p<0.05) of vehicle-treated animals versus drug-treated animals is determined by analysis of variance. (Agents and Actions 21: 331, 1987)
# [2] = molecular target: T1, human recombinant fibroblast collagenase (Homo sapiens, UniProt P03956); assay: Collagenase Inhibition in vitro; assay type: biochemical; conditions: read-out: Collagenase IC50 (nM) or % inhibition: % inhibition
# T1 construct: human recombinant fibroblast collagenase (truncated, mw 18,828, WAR, Radnor)
# T1 sequence (P03956 100-269 limits assumed): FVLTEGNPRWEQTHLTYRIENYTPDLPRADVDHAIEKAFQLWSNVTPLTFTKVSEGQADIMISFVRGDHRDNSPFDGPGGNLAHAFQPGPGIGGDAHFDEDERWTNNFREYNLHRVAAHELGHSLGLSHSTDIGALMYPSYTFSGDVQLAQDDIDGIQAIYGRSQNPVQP
# Procedure: Collagenase Inhibition in vitro
# The assay is based on the cleavage of a peptide substrate ((Dnp-Pro-Cha-Gly-Cys(Me)-His-Ala-Lys(NMa)-NH2), Peptide International, Inc.) by collagenase releasing the fluorescent NMa group which is quantitated on the fluorometer. Dnp quenches the NMa fluorescence in the intact substrate. […] Substrate is dissolved in methanol and stored frozen in 1 mM aliquots. […] For the assay, substrate is dissolved in HCBC buffer to a final concentration of 10 μM and collagenase to a final concentration of 5 nM. Compounds are dissolved in methanol, DMSO, or HCBC. The methanol and DMSO are diluted in HCBC to <1%. Compounds are added to the 96 well plate containing enzyme and the reaction is started by the addition of substrate.
# The slope of the line is calculated and represents the reaction rate.
# as §1
# stromelysin = conditions: PCT application WO 9407481; cited from earlier work
# MMP = conditions: EP 0322,184 A2; cited from earlier work
compound,measurement,setting,value
"CCCCCCC[C@H](CC(=O)CS)C(=O)N[C@H](C(=O)NC)C(C)(C)C [Example 43, (2R)-2-(3-Mercapto-2-oxopropyl)nonanoic acid ((1S)-2,2-dimethyl-1-methylcarbamoylpropyl)amide]",IC50,[1]; read-out: Stromelysin IC50 (nM) or % inhibition: IC50,28 nM
same,in vivo % Collangenase I inhibition,Collangenase I; 50 mpk (milligrams/kilogram),0.73%
"CNC(=O)[C@@H](NC(=O)[C@H](CC(C)C)C[C@H](O)CS)C(C)(C)C [Example 40, (2R,4S)-4-Hydroxy-2-isobutyl-5-mercaptopentanoic acid ((1S)-2,2-dimethyl-1-methylcarbamoylpropyl)amide]",in vivo % Collangenase I inhibition,Collangenase I; 50 mpk (milligrams/kilogram),84.8%
"CCCCCCC[C@H](C[C@H](O)CS)C(=O)N[C@H](C(=O)NC)C(C)(C)C [Example 38, (2R)-2-((2S)-2-Hydroxy-3-mercaptopropyl)nonanoic acid ((1S)-2,2-dimethyl-l-methylcarbamoylpropyl)amide]",Stromelysin IC50 (nM) or % inhibition: % inhibition,[1]; @ 0.1 μM,96%
same,in vivo % Collangenase I inhibition,Collangenase I; 50 mpk (milligrams/kilogram),22.2%
"CCCCCCC[C@H](C[C@@H](O)CS)C(=O)N[C@H](C(=O)NC)C(C)(C)C [Example 37, (2R)-2-((2R)-2-Hydroxy-3-mercaptopropyl)nonanoic acid ((1S)-2,2-dimethyl-1-methylcarbamoylpropyl)amide]",inhibition at 1 µM,[2],72%
CC(C)C[C@H](NC(=O)[C@@H](CS)CCc1ccccc1)C(=O)Nc1ccccc1,inhibitor of the MMP stromelysin,stromelysin,moderate inhibitor
"CNC(=O)[C@@H](NC(=O)[C@H](CC(C)C)C[C@@H](O)CS)C(C)(C)C [Example 39, (2R,4R)-4-Hydroxy-2-isobutyl-5-mercaptopentanoic acid ((1S)-2,2-dimethyl-1-methylcarbamoylpropyl)amide]",Stromelysin IC50 (nM) or % inhibition: % inhibition,[1]; @ 300 nM,6%
same,in vivo % Collangenase I inhibition,Collangenase I; 50 mpk (milligrams/kilogram),20.4%
"(2R,4R)-4-Hydroxy-2-isobutyl-5-tritylsulfanylpentanoic acid ((1S)-2,2-dimethyl-1-methylcarbamoylpropyl)amide [Example 35]",in vivo % Collangenase I inhibition,Collangenase I; 50 mpk (milligrams/kilogram),0.44%
"CNC(=O)[C@@H](NC(=O)[C@@H](CC(=O)CS)CC(C)C)C(C)(C)C [Example 44, (2R)-2-Isobutyl-5-mercapto-4-oxopentanoic acid ((1S)-2,2-dimethyl-1-methylcarbamoylpropyl)amide]",Stromelysin IC50 (nM) or % inhibition: % inhibition,[1]; @ 1 μM,58%
same,in vivo % Collangenase I inhibition,Collangenase I; 60 mpk (milligrams/kilogram),4.8%
CNC(=O)[C@H](Cc1ccc(OC)cc1)NC(=O)[C@H](CC(C)C)C(S)CC(C)=O (some centres unmarked) [compound where P is 2-oxopropyl],times more potent than the compound where P is methyl,MMP,approximately 20 times
CNC(=O)[C@H](Cc1ccc(OC)cc1)NC(=O)[C@H](CC(C)C)C(C)S (some centres unmarked) [compound where P is methyl],times more potent than the compound where P is hydrogen,MMP,approximately 20 times
